{"source": "ChEMBL document CHEMBL1155069", "about": "“Beta-ketophosphonates as beta-lactamase inhibitors: Intramolecular cooperativity between the hydrophobic subsites of a class D beta-lactamase” (Bioorg Med Chem, 2008)", "key": {"[1]": {"assay": "Inhibition of Escherichia coli OXA1 class D beta-lactamase by spectrophotometry"}, "[2]": {"assay": "Inhibition of Enterobacter cloacae P99 class C beta-lactamase by spectrophotometry"}, "[3]": {"assay": "Inhibition of Escherichia coli TEM2 class A beta-lactamase by spectrophotometry"}, "[4]": {"assay": "Inhibition of Escherichia coli OXA10 class D beta-lactamase by spectrophotometry"}}}
{"compound": "Cc1onc(-c2ccccc2Cl)c1C(=O)CP(=O)(O)OCc1ccccc1", "values": [{"measurement": "Ki", "setting": "[1]", "value": 430, "unit": "µM"}, {"measurement": "Ki", "setting": "[2]", "value": "> 1000", "unit": "µM"}, {"measurement": "Ki", "setting": "[3]", "value": "> 1000", "unit": "µM"}]}
{"compound": "O=C(CP(=O)(O)Oc1ccccc1)c1ccccc1", "note": "[SODIUM PHENYL PHENACYLPHOSPHONATE]", "values": [{"measurement": "Ki", "setting": "[1]", "value": 1050, "unit": "µM"}, {"measurement": "Ki", "setting": "[4]", "value": "> 1000", "unit": "µM"}, {"measurement": "Ki", "setting": "[2]", "value": 200, "unit": "µM"}]}
{"compound": "O=P(O)(CC(O)c1ccc(-c2ccccc2)cc1)OCc1ccccc1", "note": "(racemic)", "values": [{"measurement": "Ki", "setting": "[1]", "value": 300, "unit": "µM"}, {"measurement": "Ki", "setting": "[2]", "value": 260, "unit": "µM"}, {"measurement": "Ki", "setting": "[3]", "value": "> 1000", "unit": "µM"}]}
{"compound": "O=C(CP(=O)(O)OCc1ccccc1)c1ccc(-c2ccccc2)cc1", "values": [{"measurement": "Ki", "setting": "[1]", "value": 230, "unit": "µM"}, {"measurement": "Ki", "setting": "[4]", "value": "> 1000", "unit": "µM"}, {"measurement": "Ki", "setting": "[2]", "value": 190, "unit": "µM"}, {"measurement": "Ki", "setting": "[3]", "value": "> 1000", "unit": "µM"}]}
{"compound": "O=C(CP(=O)(O)OCc1ccccc1)c1nc2ccccc2s1", "values": [{"measurement": "Ki", "setting": "[1]", "value": 170, "unit": "µM"}, {"measurement": "Ki", "setting": "[2]", "value": 24, "unit": "µM"}, {"measurement": "Ki", "setting": "[3]", "value": 3600, "unit": "µM"}]}
{"compound": "O=C(CP(=O)(O)Oc1ccccc1)c1c(F)c(F)c(F)c(F)c1F", "note": "[SODIUM PHENYL PENTAFLUOROPHENACYLPHOSPHONATE]", "values": [{"measurement": "Ki", "setting": "[1]", "value": 380, "unit": "µM"}, {"measurement": "Ki", "setting": "[4]", "value": "> 1000", "unit": "µM"}, {"measurement": "Ki", "setting": "[2]", "value": 350, "unit": "µM"}, {"measurement": "Ki", "setting": "[3]", "value": 475, "unit": "µM"}]}
{"compound": "O=C(CP(=O)(O)OCc1ccccc1)c1ccccc1", "note": "[SODIUM BENZYL PHENACYLPHOSPHONATE]", "values": [{"measurement": "Ki", "setting": "[1]", "value": 640, "unit": "µM"}, {"measurement": "Ki", "setting": "[4]", "value": "> 1000", "unit": "µM"}, {"measurement": "Ki", "setting": "[2]", "value": 670, "unit": "µM"}, {"measurement": "Ki", "setting": "[3]", "value": 150, "unit": "µM"}]}
{"compound": "O=C(CP(=O)(O)OCc1ccc(-c2ccccc2)cc1)c1ccccc1", "values": [{"measurement": "Ki", "setting": "[1]", "value": 200, "unit": "µM"}, {"measurement": "Ki", "setting": "[4]", "value": "> 1000", "unit": "µM"}]}
{"compound": "O=C(CP(=O)(O)OCc1ccccc1)c1ccc2[nH]c(=O)oc2c1", "values": [{"measurement": "Ki", "setting": "[1]", "value": 270, "unit": "µM"}, {"measurement": "Ki", "setting": "[2]", "value": 70, "unit": "µM"}, {"measurement": "Ki", "setting": "[3]", "value": 1500, "unit": "µM"}]}
{"compound": "O=C(CP(=O)(O)OCc1ccc(-c2ccccc2)cc1)c1ccc(-c2ccccc2)cc1", "values": [{"measurement": "Ki", "setting": "[1]", "value": 6, "unit": "µM"}, {"measurement": "Ki", "setting": "[4]", "value": 200, "unit": "µM"}, {"measurement": "Ki", "setting": "[2]", "value": 74, "unit": "µM"}]}
{"compound": "O=P(O)(CC(O)c1ccccc1)OCc1ccccc1", "note": "(racemic)", "values": [{"measurement": "Ki", "setting": "[1]", "value": 440, "unit": "µM"}, {"measurement": "Ki", "setting": "[2]", "value": 1080, "unit": "µM"}, {"measurement": "Ki", "setting": "[3]", "value": "> 1000", "unit": "µM"}]}
{"compound": "O=C(CP(=O)(O)Oc1ccccc1)c1ccc(-c2ccccc2)cc1", "values": [{"measurement": "Ki", "setting": "[1]", "value": 140, "unit": "µM"}, {"measurement": "Ki", "setting": "[2]", "value": 100, "unit": "µM"}, {"measurement": "Ki", "setting": "[3]", "value": 920, "unit": "µM"}]}
